From patent US20260335323A1, “CHIMERIC MOLECULE” (UCL Business Ltd, priority 2023, published 2026) come the findings set out here.

The target of one test is T1, ULK1 (Homo sapiens, UniProt O75385).
T1 sequence (O75385 1-1050): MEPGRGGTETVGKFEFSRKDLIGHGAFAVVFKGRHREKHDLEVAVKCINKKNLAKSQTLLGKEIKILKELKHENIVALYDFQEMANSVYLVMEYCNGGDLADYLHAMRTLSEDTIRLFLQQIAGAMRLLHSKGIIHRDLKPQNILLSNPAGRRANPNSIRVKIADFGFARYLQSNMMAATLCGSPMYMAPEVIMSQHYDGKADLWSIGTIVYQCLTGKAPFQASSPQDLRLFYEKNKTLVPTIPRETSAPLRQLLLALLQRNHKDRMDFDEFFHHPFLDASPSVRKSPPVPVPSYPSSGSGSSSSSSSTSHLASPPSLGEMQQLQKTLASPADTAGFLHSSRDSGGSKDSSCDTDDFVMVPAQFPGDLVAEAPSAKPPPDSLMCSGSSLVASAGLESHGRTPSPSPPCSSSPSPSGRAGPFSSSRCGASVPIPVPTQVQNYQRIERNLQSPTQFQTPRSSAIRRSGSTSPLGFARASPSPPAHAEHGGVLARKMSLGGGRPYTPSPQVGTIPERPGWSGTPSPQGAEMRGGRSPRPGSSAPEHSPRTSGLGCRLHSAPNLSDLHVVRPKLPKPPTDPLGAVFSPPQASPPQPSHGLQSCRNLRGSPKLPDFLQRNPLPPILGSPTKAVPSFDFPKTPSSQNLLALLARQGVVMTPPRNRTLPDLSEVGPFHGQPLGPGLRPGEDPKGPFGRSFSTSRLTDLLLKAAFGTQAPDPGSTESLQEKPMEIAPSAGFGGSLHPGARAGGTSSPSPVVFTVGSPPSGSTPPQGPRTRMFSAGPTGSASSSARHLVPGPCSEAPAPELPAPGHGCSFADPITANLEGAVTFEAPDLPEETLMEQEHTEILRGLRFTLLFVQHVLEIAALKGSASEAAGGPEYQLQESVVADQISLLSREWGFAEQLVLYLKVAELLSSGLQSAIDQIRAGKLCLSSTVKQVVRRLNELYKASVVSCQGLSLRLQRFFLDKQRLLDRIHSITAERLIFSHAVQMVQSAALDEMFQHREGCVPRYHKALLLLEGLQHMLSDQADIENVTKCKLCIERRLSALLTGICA
Put plainly: in vitro kinase assay measuring ATP consumption. The conditions noted are these: versus BL-918. In kind it is biochemical. The text has this:
Next, we designed a chimeric compound composed of a BL-918 derivative (referred to as NZ-60 herein) as our autophagy activator linked to the TSPO ligand as our targeting warhead to the outer mitochondrial membrane, utilising Huisgen-Sharpless click chemistry for the key linkage step^38-41. We designed a chemical synthesis route in 9 steps to produce two ULKTACs, NZ-65 and NZ-66. NZ-65 employs a polyethylene glycol (PEG) linker while NZ-66 uses a six carbon hexane linker (FIG. 3A). The resulting molecules were >99% pure as verified by LCMS. […] Importantly, key interactions shown to be necessary for the activation of ULK1 in its kinase domain, namely, Arg18, Lys50, Asn86 and Tyr89^8, appear to be maintained.

Test [1] relates to LC3. Put plainly: ATP5a/LC3 co-localisation immunofluorescence in MEF WT. Format: cell-based, mouse. As to the method: (§1) FIG. 6. ULKTACs rely on ULK1 for the redirection of autophagy components to mitochondria and subsequent mitophagic degradation (A) Western blot of mouse embryonic fibroblasts (MEF) WT and MEF ULK1/2^−/− treated with 1 mM ULKTACs, 5 mM CCCP or both and probed for ULK1, Mfn2 and Actin—quantification of the relative intensity of Mfn2 shown in (B), normalised to Actin. Representative immunofluorescence of MEF WT (C) and MEF ULK1/2^−/− (D) treated with 5 mM CCCP, 1 mM ULKTACs or both and immunostained for Alexa 488 ATP5a and Alexa 647 LC3B. Quantification of the colocalised LC3 to ATP5a spot area shown in WT vs ULK1/2^−/− treated MEF cells shown in (E). Data shown are mean±SEM, n=3, *p<0.05, ** p<0.01, *** p<0.001, Two-way ANOVA with Tukey's multiple comparisons test.
(§2) For TOM20/ULK1 immunofluorescence, cells were seeded in a 384 well PerkinElmer CellCarrier Ultra plate 24 hours prior to treatment with compounds. Cells were treated for 18 hours after which they were fixed with 4% paraformaldehyde (PFA) in phosphate buffered saline (PBS) and blocked with 10% FBS and 0.1% Triton in PBS. Plates were incubated at 4° C. overnight, with 1:400 mouse anti-TOM20 (Santa Cruz, #sc-17764) and 1:400 rabbit anti-ULK1 (Cell Signalling Technologies, #0854). […]

Test [2] relates to LC3. Put plainly: ATP5a/LC3 co-localisation immunofluorescence in MEF ULK1/2-/-. Format: cell-based, mouse. The note with it: ULK1/2-/- cells. The procedure: as §1, §2

Molecules are shown by their SMILES.

As for `O=C(Nc1cc(C(F)(F)F)cc(C(F)(F)F)c1)N[C@@H](C(=O)Nc1ccc(F)cc1F)c1ccc(OCc2cn(CCOCCOCCNC(=O)C(=O)c3c(-c4ccccc4)[nH]c4ccccc34)nn2)cc1` [NZ-65, (R)-2-(3-(3,5-bis(trifluoromethyl)phenyl)ureido)-N-(2,4-difluorophenyl)-2-(4-((1-(2-(2-(2-(2-oxo-2-(2-phenyl-1H-indol-3-yl)acetamido)ethoxy)ethoxy)ethyl)-1H-1,2,3-triazol-4-yl)methoxy)phenyl) acetamide], the “activation of ULK1 vs BL-918” value on ULK1 was “comparable activity”. Also, the “co-localisation of ATP5a with LC3” value with LC3 [1] is on record as “increase in co-localisation”; with LC3 [2], “absent”.

For `O=C(Nc1cc(C(F)(F)F)cc(C(F)(F)F)c1)N[C@@H](C(=O)Nc1ccc(F)cc1F)c1ccc(OCc2cn(CCCCCCNC(=O)C(=O)c3c(-c4ccccc4)[nH]c4ccccc34)nn2)cc1` [NZ-66, (R)-2-(3-(3,5-bis(trifluoromethyl)phenyl)ureido)-N-(2,4-difluorophenyl)-2-(4-((1-(6-(2-oxo-2-(2-phenyl-1H-indol-3-yl)acetamido)hexyl)-1H-1,2,3-triazol-4-yl)methoxy)phenyl) acetamide], the “activation of ULK1 vs BL-918” value on ULK1 was “comparable activity”. For the same molecule, the “co-localisation of ATP5a with LC3” value with LC3 [1] is on record as “increase in co-localisation”; in the test on LC3 [2], “absent”.
